# Source: US20240182472A1, “INDAZOLE PYRIDONE COMPOUNDS AND USES THEREOF” (Bluejay Therapeutics, Inc., priority 2022, published 2024)
# Tests used:
# HBV S-antigen secretion = assay: HBsAg assay (HepG2 HBV S-antigen secretion biological assay); format: cell-based; conditions: Hepatitis B virus, HepG2.2.15, 72 h, read-out: EC50, HBV S-antigen secretion
# Method: HepG2.2.15 cells were grown in flasks microscopically and seeded into 96-well plates at a concentration of 6.0×10^4 cells/well and incubated at 37° C., 5% CO2 overnight.
# Source plate preparation. The stock concentration of reference compound and test compounds is 20 mM. Firstly, manually diluted the compound to obtain the first concentration points of 10 μM and 200 μM, respectively. Then a 3-fold, 8 points serial dilution is performed to obtain the 200× source plate.
# Source plate compounds were pipetted as follows: 3 μL 200× source plate compounds into sterile 2 mL 96 well plate which contain 297 μL 2% FBS Medium, mix well and transfer 100 μL/well to corresponding cell culture plates. Therefore, the test conditions of the final compounds is 1 μM initiation, 3-fold serial dilution, and 8 concentration points in duplicate.
# Incubate the cells at 37° C., 5% CO2 for three days.
# 24 hours post-seeding, the cells were treated with 200 μl/well of media containing serially diluted compounds in DMSO. DMSO alone was used as the no drug control. The final DMSO concentration in all wells was 0.5%.
# The HBsAg kit (Auto Biology-CL 0310) was used to determine the level of secreted HBVsAg. The HBSAg assay was performed as follows: • a) Blance the ELISA kit at room temperature for 30 minutes. • b) Add 50 μL standard solution, sample, positive and negative control to each well of the microplate in the kit. • c) Add 50 μL HBsAg enzyme conjugate to each well. • d) Attach the plate membrane, oscillate for 60 seconds, and incubate at 37° C. for 60 minutes. • e) Add 350 μL washing buffer to each well, shake slightly, discard liquid, repeat 6 times. Then pat 5 times on an absorbent paper towel to dry the hole. • f) Add 50 μL mixture of reagent A and B to each well. Oscillate the microplate for 10 seconds. • g) Cover the plate membrane and incubate at room temperature for 10 minutes. Read the luminescent signal using Biotek-Synergy 2.
# Compounds inhibition against HBsAg at different concentrations are calculated by the following formula:
# Inhibition %=(1−value of sample/ave. value of control)×100
# 50% effective concentrations (EC50) and were calculated with the GraphPad Prism software.
# [1] = In vivo pharmacokinetic study, oral, plasma and liver, rat; design: species or system Sprague Dawley rats; conditions: for Observed level of "active metabolite" AUC0→last, Liver / Observed level of "active metabolite" AUC0→last, Plasma: active metabolite I.6 released after oral prodrug 32 mpk, Sprague-Dawley rats, n = 3; for concentrations of the dosed prodrug itself in plasma and tissue: single PO administration at 32 mg/kg in male SD rats, PK parameters not determined
# Method: The compounds of this invention were tested orally administered in a formulation of 25% PEG 400: 10% solutol: 65% water with a 5 mL/Kg solution across species of CD-1 mice, C57BL/J6 mice, or Sprague Dawley rats following IACUC guidelines. The rat PK of Compound I.9 and Compound I.10 PO dose of 32 mpk exemplifies the methodology used across species.
# The purpose of this rat PK study was to determine the pharmacokinetics of Compound I.9, Compound I.6 and Compound I.10 in plasma following oral gavage administration of Compound I.9 and Compound I.10 to male SD rats. For PO groups, the liver and plasma concentration were measured at 1, 2, 6 and 10 h post-dose. Concentrations of Compound I.9, Compound I.6 and Compound I.10 in plasma and tissue samples were determined by a liquid chromatography tandem mass spectrometry (LC-MS/MS) method. Oral (PO) Dose—Groups 1 and 2 Compound I.9 was prepared as a clear solution in 25% PEG400+10% Solutol+65% water (Adjust the final pH to 7˜8). Groups 3 and 4 Compound I.10 was prepared as a homogeneous suspension in 25% PEG400+10% Solutol+65% water (Adjust the final pH to 7˜8). Blood (about 0.2 mL) was collected at each time point via jugular vein puncture from each study animal into a tube A. The following 4-mix stabilizer for esterase inhibition was added into a pre-chilled commercial tube B containing potassium (K2) EDTA (0.85-1.15 mg) in advance. Then the blood in the tube A will be accurately transferred (4-mix stabilizer: blood, 1:10 (v:v)) into the tube B and placed on wet ice until centrifugation.
# The following 4-mix stabilizer was added into the cold homogenizing buffer (MeOH/15 mM PBS 1:2) in advance. Then each tissue was weighed and added the cold homogenizing buffer with stabilizer at the ratio of 1:9 (1 g tissue with 9 mL buffer), then homogenized on wet ice. The tissue homogenate was kept at −60° C. or lower until LC-MS/MS analysis.
# Bioanalytical Analysis The concentrations of Compound I.9, Compound I.6 and Compound I.10 in plasma and tissue were determined by using an LC-MS/MS method. Instrumentation and conditions for
# Compound I.9, Compound I.10 and Compound I.6 in plasma and tissue homogenate. • LC parameters • Equipment: ACQUITY UPLC System • Analytical column: ACQUITY UPLC HSS T3 1.8 μm 2.1×50 mm • Inject volume: 5 μL for plasma; 3.5 μL for tissue homogenate • Mobile phase A: 0.1% FA & 2 mmol/L HCOONH4 in water/ACN (v/v, 95:5) • Mobile phase B: 0.1% FA & 2 mmol/L HCOONH4 in ACN/water (v/v, 95:5) • Elution Mode: Gradient
# • Mass spectrometer: Triple Quad 6500 plus • Ionization mode: ESI (+) • Detective mode: MRM
SMILES,EC50 (HBV S-antigen secretion),"Observed level of ""active metabolite"" AUC0→last, Liver [1]","Observed level of ""active metabolite"" AUC0→last, Plasma [1]",concentrations of the dosed prodrug itself in plasma and tissue [1]
"CCCCOC(=O)CCCCCCCOc1cccc2c3n(nc12)C[C@@H](C(C)(C)C)n1cc(C(=O)O)c(=O)cc1-3 [I.10, (R)-10-((8-butoxy-8-oxooctyl)oxy)-6-(tert-butyl)-2-oxo-6,7-dihydro-2H-pyrido[2′,1′:3,4]pyrazino[1,2-b]indazole-3-carboxylic acid]",4 ± 0.8 nM,19444 ng·h/g,146 ng·h/g,most concentrations were below the lower limit of quantitation
"CC(C)(C)[C@@H]1Cn2nc3c(OCCCCCCCCC(=O)O)cccc3c2-c2cc(=O)c(C(=O)O)cn21 [I.13, (R)-6-(tert-butyl)-10-((8-carboxyoctyl)oxy)-2-oxo-6,7-dihydro-2H-pyrido[2′,1′:3,4]pyrazino[1,2-b]indazole-3-carboxylic acid]",1.2 ± 0.5 nM,–,–,–
"CC(C)(C)[C@@H]1Cn2nc3c(OCCCCCC(=O)O)cccc3c2-c2cc(=O)c(C(=O)O)cn21 [I.1, (R)-6-(tert-butyl)-10-((5-carboxypentyl)oxy)-2-oxo-6,7-dihydro-2H-pyrido[2′,1′:3,4]pyrazino[1,2-b]indazole-3-carboxylic acid]",25.5 nM,–,–,–
"CC(C)OC(=O)CCCCCCCOc1cccc2c3n(nc12)C[C@@H](C(C)(C)C)n1cc(C(=O)O)c(=O)cc1-3 [I.9, (R)-6-(tert-butyl)-10-((8-isopropoxy-8-oxooctyl)oxy)-2-oxo-6,7-dihydro-2H-pyrido[2′,1′:3,4]pyrazino[1,2-b]indazole-3-carboxylic acid]",5.3 ± 0.9 nM,29367 ng·h/g,290 ng·h/g,most concentrations were below the lower limit of quantitation
"CCOC(=O)CCCCCCCOc1cccc2c3n(nc12)C[C@@H](C(C)(C)C)n1cc(C(=O)O)c(=O)cc1-3 [I.7, (R)-6-(tert-butyl)-10-((8-ethoxy-8-oxooctyl)oxy)-2-oxo-6,7-dihydro-2H-pyrido[2′,1′:3,4]pyrazino[1,2-b]indazole-3-carboxylic acid]",7.1 nM,–,–,–
"CCCCCCCOC(=O)CCCCCCOc1cccc2c3n(nc12)C[C@@H](C(C)(C)C)n1cc(C(=O)O)c(=O)cc1-3 [I.4, (R)-6-(tert-butyl)-10-((7-(heptyloxy)-7-oxoheptyl)oxy)-2-oxo-6,7-dihydro-2H-pyrido[2′,1′:3,4]pyrazino[1,2-b]indazole-3-carboxylic acid]",14 nM,–,–,–
"CCOC(=O)CCCCCCOc1cccc2c3n(nc12)C[C@@H](C(C)(C)C)n1cc(C(=O)O)c(=O)cc1-3 [I.3, (R)-6-(tert-butyl)-10-((7-ethoxy-7-oxoheptyl)oxy)-2-oxo-6,7-dihydro-2H-pyrido[2′,1′:3,4]pyrazino[1,2-b]indazole-3-carboxylic acid]",11.8 nM,–,–,–
